Reference: the NIST ThermoML archive (doi:10.1016/j.jct.2016.07.005)

Assay: xn = mol fraction of the nth substance listed
Conditions: 100 kPa, Liquid; for viscosity: Concentric cylinders viscometry; for mass density: Vibrating tube method

CN1CCC[C@H]1c1cccnc1 [(-)-3-(N-methylpyrrolidino)pyridine] + CC(O)CO
Conditions	mass density [kg/m3]	viscosity [mPa·s]
293.15 K, x1 = 0.1	1035.04	59.35
293.15 K, x1 = 0.2009	1033.1	53.52
293.15 K, x1 = 0.3	1030.49	44.85
293.15 K, x1 = 0.4016	1027.64	35.02
293.15 K, x1 = 0.5	1024.73	26.04
293.15 K, x1 = 0.6005	1021.54	18.44
293.15 K, x1 = 0.7	1018.73	12.89
293.15 K, x1 = 0.7983	1015.98	9.269
293.15 K, x1 = 0.9	1012.96	6.875
293.15 K, x1 = 1	1010.23	4.694
298.15 K, x1 = 0.1	1031.1	43.28
298.15 K, x1 = 0.2009	1029.06	38.88
298.15 K, x1 = 0.3	1026.32	32.72
298.15 K, x1 = 0.4016	1023.44	25.84
298.15 K, x1 = 0.5	1020.54	19.6
298.15 K, x1 = 0.6005	1017.36	14.25
298.15 K, x1 = 0.7	1014.59	10.27
298.15 K, x1 = 0.7983	1011.83	7.576
298.15 K, x1 = 0.9	1008.87	5.707
298.15 K, x1 = 1	1006.16	4.048
303.15 K, x1 = 0.1	1027.18	32.21
303.15 K, x1 = 0.2009	1025	28.85
303.15 K, x1 = 0.3	1022.19	24.37
303.15 K, x1 = 0.4016	1019.27	19.44
303.15 K, x1 = 0.5	1016.35	14.99
303.15 K, x1 = 0.6005	1013.17	11.16
303.15 K, x1 = 0.7	1010.42	8.284
303.15 K, x1 = 0.7983	1007.68	6.286
303.15 K, x1 = 0.9	1004.77	4.834
303.15 K, x1 = 1	1002.1	3.518
308.15 K, x1 = 0.1	1023.28	24.46
308.15 K, x1 = 0.2009	1020.91	21.87
308.15 K, x1 = 0.3	1018.08	18.56
308.15 K, x1 = 0.4016	1015.09	14.98
308.15 K, x1 = 0.5	1012.14	11.73
308.15 K, x1 = 0.6005	1008.98	8.935
308.15 K, x1 = 0.7	1006.13	6.791
308.15 K, x1 = 0.7983	1003.54	5.264
308.15 K, x1 = 0.9	1000.64	4.12
308.15 K, x1 = 1	998.055	3.088
313.15 K, x1 = 0.1	1019.3	18.79
313.15 K, x1 = 0.2009	1016.8	16.79
313.15 K, x1 = 0.3	1013.89	14.33
313.15 K, x1 = 0.4016	1010.88	11.69
313.15 K, x1 = 0.5	1007.92	9.302
313.15 K, x1 = 0.6005	1004.79	7.224
313.15 K, x1 = 0.7	1002.03	5.605
313.15 K, x1 = 0.7983	999.39	4.425
313.15 K, x1 = 0.9	996.55	3.532
313.15 K, x1 = 1	994.014	2.758
318.15 K, x1 = 0.1	1015.29	14.91
318.15 K, x1 = 0.2009	1012.66	13.34
318.15 K, x1 = 0.3	1009.7	11.45
318.15 K, x1 = 0.4016	1006.65	9.438
318.15 K, x1 = 0.5	1003.69	7.62
318.15 K, x1 = 0.6005	1000.58	6.031
318.15 K, x1 = 0.7	997.85	4.779
318.15 K, x1 = 0.7983	995.25	3.839
318.15 K, x1 = 0.9	992.46	3.094
318.15 K, x1 = 1	989.984	2.411
323.15 K, x1 = 0.1	1011.25	12.03
323.15 K, x1 = 0.2009	1008.51	10.78
323.15 K, x1 = 0.3	1005.48	9.306
323.15 K, x1 = 0.4016	1002.41	7.746
323.15 K, x1 = 0.5	999.45	6.339
323.15 K, x1 = 0.6005	996.37	5.104
323.15 K, x1 = 0.7	993.67	4.124
323.15 K, x1 = 0.7983	991.1	3.375
323.15 K, x1 = 0.9	988.38	2.765
323.15 K, x1 = 1	985.962	2.195
